Data on 10 compounds can be found in US6217875A, “Inhibitors of lipoxygenase” (priority 1997, dated 2001).

The IC50 is the concentration needed to halve the response being measured. A lower IC50 goes with greater potency.

Entries after “also recorded” stand apart in the source; their conditions may differ. Like-named read-outs stand apart in the source and are kept apart here.

The subject of one assay is lipoxygenase. Briefly: Inhibition of lipoxygenase enzyme activity (general statement). The format is biochemical. The note with it: enzyme not given.
The target of a further assay is T1, 5-lipoxygenase (Rattus norvegicus, UniProt P12527).
T1 construct: The supernatant was used as the enzyme solution of 5-lipoxygenase; from tissue; host or cells: peritoneal polymorphonuclear leukocytes (PMNL) of glycogen-injected Wistar-King rats, homogenate supernatant
T1 sequence (P12527 1-673): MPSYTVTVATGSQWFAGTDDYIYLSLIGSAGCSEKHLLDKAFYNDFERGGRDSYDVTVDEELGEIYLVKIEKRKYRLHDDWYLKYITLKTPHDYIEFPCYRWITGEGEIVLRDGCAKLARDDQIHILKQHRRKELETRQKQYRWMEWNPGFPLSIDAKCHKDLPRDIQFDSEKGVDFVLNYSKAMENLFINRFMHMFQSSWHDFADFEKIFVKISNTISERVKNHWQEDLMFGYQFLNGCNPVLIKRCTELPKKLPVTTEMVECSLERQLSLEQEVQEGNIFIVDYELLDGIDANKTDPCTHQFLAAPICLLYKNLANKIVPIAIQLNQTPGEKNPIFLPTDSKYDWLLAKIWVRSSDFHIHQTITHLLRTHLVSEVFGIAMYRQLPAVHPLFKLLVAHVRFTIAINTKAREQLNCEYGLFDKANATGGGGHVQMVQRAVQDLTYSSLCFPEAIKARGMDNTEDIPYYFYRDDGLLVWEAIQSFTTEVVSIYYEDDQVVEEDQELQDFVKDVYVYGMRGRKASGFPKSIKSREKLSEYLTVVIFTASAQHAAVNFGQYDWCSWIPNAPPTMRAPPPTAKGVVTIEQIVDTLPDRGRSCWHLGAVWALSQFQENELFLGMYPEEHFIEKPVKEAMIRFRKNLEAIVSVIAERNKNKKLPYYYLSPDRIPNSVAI
Briefly: Test of 5-Lipoxygenase Inhibitory Activity (rat PMNL enzyme, radiolabelled arachidonic acid, TLC). The format is biochemical, Wistar-King rats. The procedure:
(1) Formation of Enzyme Solution of 5-Lipoxygenase
Peritoneal polymorphonuclear leukocytes (PMNL) were prepared from normal Wistar-King rats (150-400 g) injected intraperitoneally with 5% (w/v) glycogen (20 mL/kg). A suspension in potassium phosphate buffer (50 mM, pH 7.4) was homogenized and centrifuged. The supernatant was used as the enzyme solution of 5-lipoxygenase.
(2) Measurement of Inhibitory Activity Against 5-Lipoxygenase
0.02 mL Of enzyme solution (2 mg protein/mL) and [1l-^14 C] arachidonic acid ([…]) were incubated with each testing solution (0.02 mL) and Ca^2+ and ATP at 37° C. for 5 min.
After incubation at 37° C. for 5 min, the reaction was terminated by adding 0.2 mL of 0.5 N formic acid, and the metabolite was extracted by 3 mL of ethyl acetate.
Then the extracted solution was subjected to thin-layer chromatography (TLC) and developed with ether/petroleum ether/acetic acid (50:50:1, v/v) at 4° C. The radioactive metabolites generated by 5-lipoxygenase were detected and quantified using autoradiography. The inhibitory activity on 5-lipoxygenase was measured and expressed as a percentage of the control.

Assay [1] deals with TPA-induced inflammation to the ears of mice. The note with it: skin, 0.5 mg/ear; already reported data; cited from earlier work.
Assay [2] relates to oxazolone-induced inflammation in the ears of mice. The note with it: skin, 1.0 mg/ear; already reported data; cited from earlier work.
The test system of another assay is 12-lipoxygenase. Description: Test of 12-Lipoxygenase Inhibitory Activity (rat platelet enzyme, radiolabelled arachidonic acid, TLC). The assay is classed as biochemical, Wistar-King rats. The procedure:
A test of the substances' effectiveness as inhibitors of the enzyme activity of 12-lipoxygenase was conducted for Embodiment 1 to 4.
(1) Formation of Enzyme Solution of 12-Lipoxygenase
Blood was collected from normal Wistar-King rats (150-400 g) and 0.5 mM of EDTA was added as anti-coagulant. The centrifuged supernatant (1,200 rpm for 10 min.) was again centrifuged at 3,000 rpm for 10 min. The deposited platelets were washed by 25 mM Tris/HCl buffer (pH 7.4) 1 mM EDTA /130 mM NaCl. The suspension of platelets in 1 mM EDTA was homogenized and used as an enzyme solution of 12-lipoxygenase.
(2) Measurement of Inhibitory Activity of 12-Lipoxygenase
Four to six testing solutions with different levels of concentration were prepared for Embodiment 1 to 4. 0.13 mL of enzyme solution (2 mg protein/mL) and [1-^14 C] arachidonic acid ([…]) were incubated with a testing solution (0.02 mL) at 37° C. for 5 min.
After incubation at 37° C. for 5 min., the reaction was terminated by adding 0.2 mL of 0.5 N formic acid, and the metabolite was extracted by adding 3 mL of ethyl acetate. […] The radioactive metabolites of 12 lipoxygenase were detected and quantified using autoradiography. The inhibitory activity of 12-lipoxygenase was measured and expressed as a percentage of the control.

The test system of assay [3] is oxazolone-induced inflammation in the ears of mice. Briefly: Allergy control test against oxazolone-induced inflammation in the ears of mice, application to the skin. The format is in vivo, mice (I.C.R). The protocol: As described in this section, an allergy control test of oxazolone-induced inflammation to the ears of mice was conducted.
(§1) (1) Application to the Skin
Oxazolone solution in ethanol (500 μg/100 μl) was applied to the abdominal region of mice (I.C.R, 5 weeks old, Clair), that had been shaved by hair clippers under an anesthetic of Nembutal (Immunization).
After 5 days of immunization, oxazolone solution in acetone, containing a prescribed amount of the sample being tested (Embodiment 1), was applied to the right ears of the mice (Challenge).
Also, as a comparison, data on NDGA (Comparison 7), ketoprophen (Comparison 8), phenidone (Comparison 9) and mepiramine (Comparison 10) which had already been reported, were listed in Table 3.

The test system of assay [4] is TPA-induced inflammation to the ears of mice. Briefly: Regulating inflammatory reaction against TPA-induced inflammation to the ears of mice, application to the skin. The format is in vivo, mice (ICR). The following applies: for Regulating Coefficient: TPA 0.8 μg/20 μl/ear, after 4 hours. The procedure:
as §1
Test solutions for Embodiment 1, 3 and 4 were prepared and applied to the right ears of mice (ICR, 5 weeks old, Clair) by adding acetone solution of TPA (0.8 μg/20 μl/ear).

On to `O=c1cc(-c2ccc(O)cc2)oc2cc(O)cc(O)c12` [apigenin], for which the “Inhibition of lipoxygenase enzyme activity (in words)” value (“Inhibition” below) with lipoxygenase was “strongly inhibit lipoxygenase enzyme activity”.
Take `O=C(O)/C=C/c1ccc(O)c(O)c1` [Comparison 5, caffeic acid, reference compound]: 72 µM corresponded to half-maximal inhibition at 5-lipoxygenase (IC50).
`COc1cc(-c2cc(=O)c3c(O)cc(O)cc3o2)ccc1O` [Embodiment 2, chrysoeriol]: in the assay on lipoxygenase, the “Inhibition” value is on record as “strongly inhibit lipoxygenase enzyme activity; also recorded: lesser inhibitory activity”.
`CC(Cc1ccc(O)c(O)c1)C(C)Cc1ccc(O)c(O)c1` (stereo not shown) [Comparison 7, NDGA]: the “Regulating Coefficient” value in assay [1] is listed as 40%; in assay [2] it was 38%.
With `CC(C(=O)O)c1cccc(C(=O)c2ccccc2)c1` (stereo not shown) [Comparison 8, ketoprophen], the “Regulating Coefficient” value in assay [2] was 32%.
Take `COc1ccc(CN(CCN(C)C)c2ccccn2)cc1` [Comparison 10, mepiramine]: the “Regulating Coefficient” value in assay [2] is recorded as 38%.
At 5-lipoxygenase, `O=C(/C=C/c1ccc(O)c(O)c1)O[C@H](Cc1ccc(O)c(O)c1)C(=O)O` [Comparison 1, rosemarinic acid, reference compound] had an IC50 of 6.2 µM. Further, the “Inhibition” value with lipoxygenase is “strongly inhibit lipoxygenase enzyme activity”.
For `COC(=O)[C@@H](Cc1ccc(O)c(O)c1)OC(=O)/C=C/c1ccc(O)c(O)c1` [Comparison 2, rosemarinic acid methyl ester, reference compound], the midpoint of inhibition against 5-lipoxygenase (rat PMNL enzyme, 37° C., 5 min), the IC50, lay at 0.6 µM. The “Inhibition” value in the assay with lipoxygenase is “strongly inhibit lipoxygenase enzyme activity”.
Consider `O=C1CCN(c2ccccc2)N1` [Comparison 9, phenidone], for which the “Regulating Coefficient” value in assay [2] is listed as 44%.
As for `O=c1cc(-c2ccc(O)c(O)c2)oc2cc(O)cc(O)c12` [Embodiment 1, luteolin], on 5-lipoxygenase (in words), the “Inhibitory activity against 5-lipoxygenase (in words)” value was “significant 5-LO inhibitory activity; also recorded: stronger inhibitory activity than that of Comparison 1 (rosemarinic acid) and Comparison 2 (rosemarinic acid methyl ester)”. In addition, the IC50 on 5-lipoxygenase (rat PMNL enzyme, 37° C., 5 min) came to 0.1 µM. In addition, the “Inhibition” value with lipoxygenase is on record as “strongly inhibit lipoxygenase enzyme activity; also recorded: outstanding inhibitory activity”. Besides, in the assay with 12-lipoxygenase, the “Inhibitory activity against 12-lipoxygenase (in words)” value is “very strong inhibitory activity, similar to that against 5-lipoxygenase”. Besides, the “Regulating Coefficient” value was 52% in assay [3] (0.3 mg/ear, 48 hours after challenge); 85% in assay [4] (0.15 mg/ear); 100% in assay [4] (0.3 mg/ear). Besides, the “Anti-allergic action (in words)” value in assay [3] is “higher regulating coefficient for a smaller amount of application against Comparisons 7 to 10”; in assay [3] (listed as luteolin) it was “significant anti-allergic action”. In addition, the “Regulating effect against inflammation (in words)” value in assay [4] (in words) was “significant regulating effect against inflammation; also recorded: anti-inflammatory action, which correlated with the concentration of luteolin”.
